This is an account of results in article PMC7918738, “Microtubule Destabilizing Sulfonamides as an Alternative to Taxane-Based Chemotherapy” (International Journal of Molecular Sciences, 2021).

pIC50: −log10 of the molar value.

A word on the pIC50: it is −log10 of the IC50, conventionally taken in molar units.

Assay [1] has as its system MCF7 (breast adenocarcinoma). The assay is described as follows: Antiproliferative activity against MCF7 (XTT colorimetric method). In kind it is cell-based. Conditions: Homo sapiens, 72 h treatment. The protocol: The in vitro antiproliferative activity of MDS at 1 µM after 72 h treatments was evaluated by a colorimetric method against the human tumor cell lines HeLa (cervix epithelioid carcinoma) and MCF7 (breast adenocarcinoma). Compounds showing more than 40% inhibition at 1 µM in at least three independent assays were evaluated in a range of concentrations between 0.1 nM and 10 µM for the determination of half-maximal inhibitory concentrations (IC50) (Table 1). Paclitaxel, CA-4, and ABT-751 were used as references.
(§1) MCF7 (human breast carcinoma), SKOV-3 (human ovarian carcinoma), OVCAR-3 (human ovarian carcinoma), OVCAR-8 (human ovarian carcinoma), and HeLa (human cervical carcinoma) cell lines were cultured in Dulbecco’s Modified Eagle’s Medium (DMEM) (Gibco, Thermo Fischer Scientific) containing 10% (v/v) heat-inactivated fetal bovine serum (HIFBS) (Lonza-Cambrex, Karlskoga, Sweden), 2 mM L-glutamine (Lonza-Cambrex, Karlskoga, Sweden), 100 μg/mL streptomycin, and 100 IU/mL penicillin (Lonza-Cambrex) at 37 °C in humidified 95% air and 5% CO2. HT-29 (human colon carcinoma), IGROV-1 (human ovarian carcinoma), and A2780 (human ovarian carcinoma) cell lines were cultured in RPMI 1640 medium (Gibco, Thermo Fischer Scientific) supplemented with 10% HIFBS, 100 μg/mL streptomycin, and 100 IU/mL penicillin at 37 °C in humidified 95% air and 5% CO2 atmosphere. The presence of mycoplasma was routinely checked with MycoAlert kit (Lonza-Cambrex) and only mycoplasma-free cells were used in the experiments. Ovarian tumor cell lines were originally acquired from Dr Atanasio Pandiella from Centro de Investigación del Cáncer (CIC), Salamanca, Spain. HeLa, HT-29 and MCF7 tumor cell lines were provided by Dr Faustino Mollinedo from Centro de Investigaciones Biológicas Margarita Salas, Madrid, Spain.
MCF7, HeLa, and HT-29 cell proliferation, when treated with the corresponding compounds, were determined using the XTT (sodium 3’-[1(phenylaminocarbonyl)-3,4-tetrazolium]-bis(4-methoxy-6-nitro)-benzenesulfonic acid hydrate) cell proliferation kit (Roche Molecular Biochemicals, Mannheim, Germany). A freshly prepared mixture of XTT labeling reagent with 0.02% (v/v) PMS (N-methyl-dibenzopyrazine methyl sulfate) electron coupling reagent was added to cells (50 µL/well in 96-well plates, total volume of 160 µL/well). Cells were incubated under standard culture conditions for 4 h (MCF7 and HeLa) or 6 h (HT-29). The absorbance of the formazan product generated was measured at 450 nm using a multi-well plate reader. SKOV-3, OVCAR-3, OVCAR-8, IGROV-1, A-2780 cell proliferation, when treated with the corresponding compound, were determined using MTT (3-(4,5-dimethylthiazol-2-yl)-2,5-diphenyl-2H-tetrazolium bromide) (Sigma-Aldrich, St. Louis, MO, USA). MTT in Phosphate Buffer Saline (PBS) (5 mg/ml) was added to cells (110 µL/well in 24-well plates, total volume of 1110 µL/well). After 1 hour of incubation, the medium was aspirated, and formazan violet crystals were dissolved in dimethyl sulfoxide (DMSO) (500 µL/well). Absorbance was measured at 570 nm in a plate reader (Ultra Evolution, Tecan, Männedorf, Suiza). To determine cell viability, cells in exponential growth phase were seeded (100 µL/well in 96-well plates and 1000 µL/well in 24-well plates) with appropriate cell line concentration (1.5·10^4 cells/mL for MCF7 and HeLa, 3·10^4 cells/mL for HT-29, and 1·10^4 cells/mL for SKOV-3, OVCAR-3, OVCAR-8, IGROV-1, and A-2780) in complete RPMI 1640 or DMEM medium at 37°C and 5% CO2 atmosphere. After 24 h incubation, to allow cells to attach to the plates, all compounds were added at 1 µM concentration and the effect on the proliferation was evaluated 72 h post-treatment. Compounds showing antiproliferative effects at tested concentration were selected for IC50 calculation (50% inhibitory concentration with respect to the untreated controls) from 10^−5 to 10^−10 M concentration. Non-linear curves fitting the experimental data were carried out for each compound. […]
(Tetrazolium dyes change colour on reduction, which living cells bring about.)

In assay [2] the test system is HT-29 (colon adenocarcinoma). Put plainly: Antiproliferative activity against CA-4-resistant HT-29 with or without verapamil (sensitivity to MDR pumps, XTT). In kind it is cell-based, human. Conditions: for pIC50: Homo sapiens, HT-29, 72 h, XTT, without verapamil, read-out: Antiproliferative Activity IC50 HT-29; for Difference between pairs of HT-29 IC50 values in the presence or absence of verapamil: 10 µM verapamil, up to two-fold change counted as not significant.
Source text: Detecting changes in drug potency when inhibiting MDR-mediated efflux reflect that these transporters reduce the intracellular drug concentration. HT-29 has been reported to express moderate levels of MDR1, accounting for a resistant phenotype. A comparison of the antiproliferative IC50 values of each MDS in the presence or absence of verapamil provides an estimate of the susceptibility of each compound to efflux pumps.
as §1
MCF7, HeLa, and HT-29 cell proliferation, when treated with the corresponding compounds, were determined using the XTT (sodium 3’-[1(phenylaminocarbonyl)-3,4-tetrazolium]-bis(4-methoxy-6-nitro)-benzenesulfonic acid hydrate) cell proliferation kit (Roche Molecular Biochemicals, Mannheim, Germany). A freshly prepared mixture of XTT labeling reagent with 0.02% (v/v) PMS (N-methyl-dibenzopyrazine methyl sulfate) electron coupling reagent was added to cells (50 µL/well in 96-well plates, total volume of 160 µL/well). Cells were incubated under standard culture conditions for 4 h (MCF7 and HeLa) or 6 h (HT-29). The absorbance of the formazan product generated was measured at 450 nm using a multi-well plate reader. SKOV-3, OVCAR-3, OVCAR-8, IGROV-1, A-2780 cell proliferation, when treated with the corresponding compound, were determined using MTT (3-(4,5-dimethylthiazol-2-yl)-2,5-diphenyl-2H-tetrazolium bromide) (Sigma-Aldrich, St. Louis, MO, USA). MTT in Phosphate Buffer Saline (PBS) (5 mg/ml) was added to cells (110 µL/well in 24-well plates, total volume of 1110 µL/well). After 1 hour of incubation, the medium was aspirated, and formazan violet crystals were dissolved in dimethyl sulfoxide (DMSO) (500 µL/well). Absorbance was measured at 570 nm in a plate reader (Ultra Evolution, Tecan, Männedorf, Suiza). To determine cell viability, cells in exponential growth phase were seeded (100 µL/well in 96-well plates and 1000 µL/well in 24-well plates) with appropriate cell line concentration (1.5·10^4 cells/mL for MCF7 and HeLa, 3·10^4 cells/mL for HT-29, and 1·10^4 cells/mL for SKOV-3, OVCAR-3, OVCAR-8, IGROV-1, and A-2780) in complete RPMI 1640 or DMEM medium at 37°C and 5% CO2 atmosphere. After 24 h incubation, to allow cells to attach to the plates, all compounds were added at 1 µM concentration and the effect on the proliferation was evaluated 72 h post-treatment. […] Non-linear curves fitting the experimental data were carried out for each compound. Compounds were dissolved in DMSO and the final solvent concentrations never exceeded 0.5% (v/v). The control wells included […] with 0.5% (v/v) DMSO and the positive control. 10 µM verapamil was included as a control for the HT-29 cell line.

As for `COc1ccc(S(=O)(=O)Nc2cc(OC)c(OC)c(OC)c2NC=O)cc1` [Compound 17], the pIC50 in assay [1] and in assay [2] was < 6.00 throughout.
For the compound `COc1ccc(S(=O)(=O)Nc2cc(OC)c(OC)c(OC)c2Br)cc1` [Compound 20], the pIC50 in assay [1] and in assay [2] was < 6.00 each time.
For `COc1ccc(S(=O)(=O)Nc2cc(OC)c(OC)c(OC)c2NC(C)=O)cc1` [Compound 15], the pIC50 in assay [1] and in assay [2] was < 6.00 each time.
With `COc1cc(N(CC#N)S(=O)(=O)c2ccc(N(C)C)cc2)cc(OC)c1OC` [Compound 32], the pIC50 was 6.92 in assay [1] and 6.91 in assay [2].
For `COc1ccc(S(=O)(=O)Nc2cc(OC)c(OC)c(OC)c2NCN(c2cc(OC)c(OC)c(OC)c2N)S(=O)(=O)c2ccc(OC)cc2)cc1` [Compound 14] the same measures were < 6.00 and < 6.00.
Taken in the same sequence, the figures for `COc1ccc(S(=O)(=O)N(C)c2cc(OC)c(OC)c(OC)c2NC(C)=O)cc1` [Compound 16] were < 6.00 and < 6.00.
Taken in the same sequence, the figures for `COc1ccc(S(=O)(=O)Nc2cc(OC)c(OC)c(OC)c2)cc1[N+](=O)[O-]` [Compound 40] were < 6.00 and < 6.00.
As to `COc1ccc(S(=O)(=O)n2nnc3c(OC)c(OC)c(OC)cc32)cc1` [Compound 23], the pIC50 in assay [1] and in assay [2] was < 6.00 in each case.
On to `COc1ccc(S(=O)(=O)n2cnc3c(OC)c(OC)c(OC)cc32)cc1` [Compound 24], for which the pIC50 in assay [1] and in assay [2] was < 6.00 throughout.
With `COc1ccc(S(=O)(=O)N(Cc2ccccc2)c2cc(OC)c(OC)c(OC)c2)cc1N` [Compound 45], the negative-log IC50 (pIC50) in assay [1] was 7.32. Further, in assay [2], the “Difference between pairs of HT-29 IC50 values in the presence or absence of verapamil” value is “no significant differences” and the pIC50 was 6.52.
Taken in the same sequence, the figures for `COc1ccc(S(=O)(=O)N(C)c2cc(OC)c(OC)c(OC)c2)cc1N` [Compound 42] were 7.59, “no significant differences” and 7.09.
Consider `COc1ccc(S(=O)(=O)Nc2cc(OC)c(OC)c(OC)c2N)cc1` [Compound 12], for which the pIC50 in assay [1] and in assay [2] was < 6.00 in each case.
Turning to `COc1cc(NS(=O)(=O)c2ccc(N(C)C)cc2)cc(OC)c1OC` [Compound 28], the pIC50 in assay [1] was 6.76; in assay [2], 6.05.
As for `COc1ccc(S(=O)(=O)Nc2cc(OC)c(OC)c(OC)c2NC(=O)CNC(=O)OC(C)(C)C)cc1` [Compound 21], the pIC50 in assay [1] and in assay [2] was < 6.00 each time.
For the compound `COc1ccc(S(=O)(=O)Nc2cc(OC)c(OC)c(OC)c2)cc1` [Compound 1a], the results for the negative-log IC50 (pIC50) in assay [1] and in assay [2] were 6.43 and 6.05, respectively.
Take `COc1ccc(S(=O)(=O)Nc2cc(OC)c(OC)c(OC)c2)cc1N` [Compound 41]: the negative logarithm of the IC50 (pIC50) in assay [1] is 7.02; in assay [2], 6.56.
Consider `CNc1ccc(S(=O)(=O)N(C)c2cc(OC)c(OC)c(OC)c2)cc1` [Compound 38], for which the pIC50 in assay [1] was 7.21. Further, in assay [2], the “Difference between pairs of HT-29 IC50 values in the presence or absence of verapamil” value is “no significant differences” and the pIC50 is 7.23.
With `CNc1cc(S(=O)(=O)N(C)c2cc(OC)c(OC)c(OC)c2)ccc1OC` [Compound 48a], the pIC50 in assay [1] was 5.92; in assay [2], < 6.00.
For `COc1cc(N(C)S(=O)(=O)c2ccc(N)cc2)cc(OC)c1OC` [Compound 27] the same measures were < 6.00 and < 6.00.
